From patent publication US20260364184A1, “COMPOUND BASED ON OXOISOINDOLINYL-SUBSTITUTED TETRAHYDROPYRIMIDINE-DIONE AND USE THEREOF” (GLUETACS THERAPEUTICS (SHANGHAI) CO., LTD., priority 2023, published 2026)

Experiments:
Assay type in all cases: cell-based
C-ABL = biological target: T1, C-ABL (Homo sapiens, UniProt P00519); test: Western blot degradation of C-ABL; conditions: K562 Cell; 24 hours
T1 construct: K562 also holds p210 BCR-ABL (BCR P11274 fused to ABL1)
Method: (§1) Conventional Western blot assay was performed to evaluate the effects of the compounds of the present disclosure on the expression of target proteins in cells.
(§2) (1) Cell Seeding and Protein Harvesting: The selected cells were processed according to the cell seeding procedure and protein harvesting procedure in Table II-2.
(§3) (2) To the collected supernatant, 5×SDS sample loading buffer was added, followed by denaturation at 95 °C for 5 minutes. The denatured samples were then separated by SDS-PAGE electrophoresis on a polyacrylamide gel. Proteins were transferred to a nitrocellulose membrane (0.45 μm NC membrane), blocked with blocking buffer at room temperature for 1 hour, and subjected to antibody incubation and development procedures according to the antibody manufacturer's instructions (Cell Signaling Technology).
(§4) Half-Maximal Degradation Concentration value (the drug concentration required for degrading proteins by 50%, abbreviated as DC50) reads method: comparing the grayscale values of Western blot bands from drug-treated samples with those from blank DMSO-treated controls, and identifying the drug concentration range at which the grayscale value is half that of the DMSO-treated control bands.
(§5) DC50 values can be calculated using ImageJ software to measure grayscale values of Western blot bands from drug-treated samples. The concentration-response curve is fitted to estimate the drug concentration corresponding to half the grayscale value.
(§6) Target protein remaining (%) refers to the percentage of target protein remaining in cells after treatment with protein degrader compounds.
(§7) Calculation method for target protein remaining (%): Use ImageJ software to measure grayscale values of Western blot bands from drug (protein degrader)-treated samples. The grayscale value of drug-treated bands is divided by that of internal control protein bands, and the resulting quotient is normalized to obtain the relative percentage of remaining target protein after protein degrader treatment.
(§8) Target protein degradation rate (%)=1−target protein remaining (%).

[1] = test system: Human Multiple myeloma cell line (MM.1S); test: Inhibition of MM.1S cell proliferation (CellTiter luminescent viability); conditions: Homo sapiens, MM1.S, Table IL1, BCR-ABL inhibitor-based, 96 hours; for inhibition at 0.01 µM: 10 nM, read-out: Inhibition Rate at 10 nM (%); for inhibition at 0.5 µM: 500 nM, read-out: Inhibition Rate at 500 nM (%)
Procedure, shortened: (§9)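 Cells are seeded in 96-well plates, cultured at 37 °C, 5% CO2, and treated next day with 5-fold serial compound dilutions (stock series from 2000 μM; 0.5 μL into 100 μL medium). Viability is read by CellTiter-Meiluncell luminescence after the set exposure, and IC50 is taken from growth-inhibition curves.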

[2] = test system: Human acute lymphocytic leukemia T lymphocytes cell line (CCRF-CEM); test: Inhibition of CCRF-CEM cell proliferation (CellTiter luminescent viability); conditions: Homo sapiens, 96 h, Table IL3, BCR-ABL inhibitor-based; for inhibition at 0.01 µM: 10 nM, read-out: Inhibition Rate at 10 nM (%); for inhibition at 0.5 µM: 500 nM, read-out: Inhibition Rate at 500 nM (%)
[3] = test system: Human myeloid monocytic leukemia cell line (MV-4-11); test: Inhibition of MV-4-11 cell proliferation (CellTiter luminescent viability); conditions: Homo sapiens, MV4-11, Table IL2, BCR-ABL inhibitor-based, 96 hours; for inhibition at 0.01 µM: MV-4-11, 10 nM, read-out: Inhibition Rate at 10 nM (%); for inhibition at 0.5 µM: MV-4-11, 500 nM, read-out: Inhibition Rate at 500 nM (%)
Procedure, shortened: as §9

BRG1 = biological target: T2, BRG1 (Homo sapiens, UniProt P51532); test: Western blot degradation of BRG1 (SMARCA4); conditions: Molt-4 Cell; 24 hours
T2 construct: expression of target proteins in cells; endogenous in cells
Method: as §1, §2, §3, §4, §5, §6, §7, §8

BRM = biological target: T3, BRM (Homo sapiens, UniProt P51531); test: Western blot degradation of BRM (SMARCA2); conditions: Molt-4 Cell; 24 hours
T3 construct: expression of target proteins in cells; endogenous in cells
Method: as §1, §2, §3, §4, §5, §6, §7, §8

T3 sequence (P51531 whole entry): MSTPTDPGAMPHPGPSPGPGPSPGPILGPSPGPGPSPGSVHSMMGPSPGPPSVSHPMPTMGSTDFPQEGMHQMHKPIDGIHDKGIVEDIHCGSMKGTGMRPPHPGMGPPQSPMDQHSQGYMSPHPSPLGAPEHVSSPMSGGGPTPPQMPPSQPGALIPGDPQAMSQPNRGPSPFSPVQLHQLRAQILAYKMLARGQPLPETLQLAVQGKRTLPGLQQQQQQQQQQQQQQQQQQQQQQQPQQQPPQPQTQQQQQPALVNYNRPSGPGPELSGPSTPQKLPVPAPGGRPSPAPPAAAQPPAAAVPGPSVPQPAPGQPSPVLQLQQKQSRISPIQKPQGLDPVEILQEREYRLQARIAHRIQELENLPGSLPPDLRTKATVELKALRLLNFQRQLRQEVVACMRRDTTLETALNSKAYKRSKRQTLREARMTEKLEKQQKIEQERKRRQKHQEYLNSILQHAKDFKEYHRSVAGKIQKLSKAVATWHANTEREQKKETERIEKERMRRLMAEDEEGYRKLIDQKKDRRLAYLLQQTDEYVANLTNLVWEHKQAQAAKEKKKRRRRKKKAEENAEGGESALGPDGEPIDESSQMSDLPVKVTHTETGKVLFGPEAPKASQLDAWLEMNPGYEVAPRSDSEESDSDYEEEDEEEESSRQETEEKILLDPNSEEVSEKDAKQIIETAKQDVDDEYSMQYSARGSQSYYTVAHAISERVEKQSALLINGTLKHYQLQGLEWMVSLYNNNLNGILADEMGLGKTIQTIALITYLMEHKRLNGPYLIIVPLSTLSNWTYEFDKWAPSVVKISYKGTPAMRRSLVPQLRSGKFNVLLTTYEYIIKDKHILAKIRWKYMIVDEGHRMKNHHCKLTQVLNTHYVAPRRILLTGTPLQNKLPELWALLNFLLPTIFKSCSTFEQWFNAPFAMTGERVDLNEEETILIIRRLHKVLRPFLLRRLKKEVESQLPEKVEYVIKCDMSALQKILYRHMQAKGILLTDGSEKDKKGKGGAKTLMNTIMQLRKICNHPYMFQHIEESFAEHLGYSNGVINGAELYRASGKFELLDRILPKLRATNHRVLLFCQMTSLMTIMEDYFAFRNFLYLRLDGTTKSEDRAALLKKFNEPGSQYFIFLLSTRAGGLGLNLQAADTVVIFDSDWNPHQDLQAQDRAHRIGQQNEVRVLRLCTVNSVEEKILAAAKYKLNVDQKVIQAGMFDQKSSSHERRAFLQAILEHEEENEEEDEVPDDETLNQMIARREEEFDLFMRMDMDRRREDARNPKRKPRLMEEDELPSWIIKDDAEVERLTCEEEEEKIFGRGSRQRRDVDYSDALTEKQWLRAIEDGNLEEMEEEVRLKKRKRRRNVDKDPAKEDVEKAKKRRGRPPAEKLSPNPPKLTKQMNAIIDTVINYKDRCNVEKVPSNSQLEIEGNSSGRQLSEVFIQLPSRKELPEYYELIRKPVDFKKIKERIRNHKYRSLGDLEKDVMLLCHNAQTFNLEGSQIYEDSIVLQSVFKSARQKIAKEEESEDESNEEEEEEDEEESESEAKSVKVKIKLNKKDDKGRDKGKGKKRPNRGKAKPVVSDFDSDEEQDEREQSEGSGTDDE
T1 sequence (P00519 whole entry, the tested form may be a part): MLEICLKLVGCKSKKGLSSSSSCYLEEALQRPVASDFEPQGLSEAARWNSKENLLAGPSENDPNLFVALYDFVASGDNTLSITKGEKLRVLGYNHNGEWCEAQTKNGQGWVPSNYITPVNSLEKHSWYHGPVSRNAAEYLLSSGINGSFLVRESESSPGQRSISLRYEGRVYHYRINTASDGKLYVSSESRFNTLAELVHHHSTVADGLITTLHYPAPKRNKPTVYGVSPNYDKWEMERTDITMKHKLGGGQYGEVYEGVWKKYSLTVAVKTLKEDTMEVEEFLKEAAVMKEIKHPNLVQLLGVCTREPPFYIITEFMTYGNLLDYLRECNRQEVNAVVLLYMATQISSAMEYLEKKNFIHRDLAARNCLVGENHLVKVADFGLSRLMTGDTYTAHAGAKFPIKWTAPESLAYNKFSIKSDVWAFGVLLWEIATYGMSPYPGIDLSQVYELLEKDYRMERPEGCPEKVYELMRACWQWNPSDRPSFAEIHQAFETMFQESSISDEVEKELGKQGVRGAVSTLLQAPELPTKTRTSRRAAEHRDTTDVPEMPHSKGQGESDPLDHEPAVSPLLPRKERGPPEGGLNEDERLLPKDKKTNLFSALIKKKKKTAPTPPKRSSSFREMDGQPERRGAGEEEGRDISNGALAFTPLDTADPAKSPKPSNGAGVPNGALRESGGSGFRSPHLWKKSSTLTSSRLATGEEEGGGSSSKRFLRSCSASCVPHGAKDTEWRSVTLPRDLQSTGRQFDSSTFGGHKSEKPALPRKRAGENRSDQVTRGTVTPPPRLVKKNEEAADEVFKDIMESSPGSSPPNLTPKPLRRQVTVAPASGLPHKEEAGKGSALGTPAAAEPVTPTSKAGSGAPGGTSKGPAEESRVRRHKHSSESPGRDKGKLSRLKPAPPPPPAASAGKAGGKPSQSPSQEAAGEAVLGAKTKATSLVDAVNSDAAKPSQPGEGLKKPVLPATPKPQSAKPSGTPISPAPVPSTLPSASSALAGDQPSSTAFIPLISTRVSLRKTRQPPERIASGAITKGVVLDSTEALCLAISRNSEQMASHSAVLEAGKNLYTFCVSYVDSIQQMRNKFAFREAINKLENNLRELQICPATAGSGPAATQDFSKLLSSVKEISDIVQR
T1 sequence (Q96SW2 whole entry partner, the tested form may be a part): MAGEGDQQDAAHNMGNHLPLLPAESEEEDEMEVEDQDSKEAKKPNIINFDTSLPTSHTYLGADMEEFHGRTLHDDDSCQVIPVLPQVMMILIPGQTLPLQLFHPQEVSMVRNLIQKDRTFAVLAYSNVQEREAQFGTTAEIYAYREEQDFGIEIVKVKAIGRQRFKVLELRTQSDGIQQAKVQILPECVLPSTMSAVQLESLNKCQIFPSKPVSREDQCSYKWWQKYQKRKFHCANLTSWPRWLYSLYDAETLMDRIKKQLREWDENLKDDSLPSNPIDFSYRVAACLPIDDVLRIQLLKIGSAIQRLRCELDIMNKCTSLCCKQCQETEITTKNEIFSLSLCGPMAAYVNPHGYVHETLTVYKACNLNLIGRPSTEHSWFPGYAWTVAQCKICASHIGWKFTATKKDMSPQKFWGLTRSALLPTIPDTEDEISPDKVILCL
T2 sequence (P51532 whole entry): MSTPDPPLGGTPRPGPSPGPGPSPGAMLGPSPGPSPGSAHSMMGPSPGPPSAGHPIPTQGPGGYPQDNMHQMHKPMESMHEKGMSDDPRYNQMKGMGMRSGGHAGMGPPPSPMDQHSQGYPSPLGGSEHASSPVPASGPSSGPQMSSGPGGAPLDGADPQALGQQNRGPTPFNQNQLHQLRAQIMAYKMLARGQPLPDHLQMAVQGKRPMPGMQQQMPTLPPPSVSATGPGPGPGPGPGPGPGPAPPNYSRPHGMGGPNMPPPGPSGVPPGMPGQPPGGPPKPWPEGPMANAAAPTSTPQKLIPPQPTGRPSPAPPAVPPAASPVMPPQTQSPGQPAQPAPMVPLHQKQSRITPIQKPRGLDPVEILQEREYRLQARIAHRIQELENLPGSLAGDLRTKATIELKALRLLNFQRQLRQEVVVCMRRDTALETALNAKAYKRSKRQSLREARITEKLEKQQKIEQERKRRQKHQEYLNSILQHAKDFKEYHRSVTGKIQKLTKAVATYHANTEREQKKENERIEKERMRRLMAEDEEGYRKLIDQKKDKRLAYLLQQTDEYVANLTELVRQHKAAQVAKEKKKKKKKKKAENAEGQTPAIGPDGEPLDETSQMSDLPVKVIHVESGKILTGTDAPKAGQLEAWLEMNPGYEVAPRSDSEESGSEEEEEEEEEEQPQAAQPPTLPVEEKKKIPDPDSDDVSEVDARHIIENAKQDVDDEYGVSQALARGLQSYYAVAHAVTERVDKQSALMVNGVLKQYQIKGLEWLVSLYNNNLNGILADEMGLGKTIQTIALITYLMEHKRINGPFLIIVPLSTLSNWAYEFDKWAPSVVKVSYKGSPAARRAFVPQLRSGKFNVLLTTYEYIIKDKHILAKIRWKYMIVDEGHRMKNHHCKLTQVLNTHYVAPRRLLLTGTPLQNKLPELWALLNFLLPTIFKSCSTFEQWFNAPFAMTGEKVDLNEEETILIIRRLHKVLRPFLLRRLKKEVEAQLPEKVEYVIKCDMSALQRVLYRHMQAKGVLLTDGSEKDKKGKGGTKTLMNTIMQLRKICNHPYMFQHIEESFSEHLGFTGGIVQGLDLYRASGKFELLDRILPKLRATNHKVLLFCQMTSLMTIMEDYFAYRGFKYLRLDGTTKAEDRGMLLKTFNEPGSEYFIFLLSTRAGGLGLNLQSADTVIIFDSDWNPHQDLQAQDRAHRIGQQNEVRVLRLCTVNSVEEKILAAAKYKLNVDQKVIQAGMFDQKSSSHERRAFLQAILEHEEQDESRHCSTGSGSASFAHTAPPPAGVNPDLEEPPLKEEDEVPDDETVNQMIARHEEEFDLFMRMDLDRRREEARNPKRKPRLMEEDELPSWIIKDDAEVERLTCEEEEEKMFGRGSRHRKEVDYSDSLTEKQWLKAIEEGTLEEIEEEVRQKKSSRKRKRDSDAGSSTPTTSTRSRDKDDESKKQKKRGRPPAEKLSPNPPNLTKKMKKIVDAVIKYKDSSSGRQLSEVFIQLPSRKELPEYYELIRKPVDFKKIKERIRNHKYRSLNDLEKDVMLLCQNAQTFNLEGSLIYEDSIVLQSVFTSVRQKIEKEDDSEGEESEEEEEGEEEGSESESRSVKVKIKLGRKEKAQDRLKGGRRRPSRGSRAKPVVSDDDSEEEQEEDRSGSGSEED

SMILES | Degradation of substrate protein C-ABL; BCR-ABL (substrate protein remaining %) (C-ABL) | inhibition at 0.01 µM [2] | inhibition at 0.5 µM [2] | also measured
O=C1CCN(N2C(=O)c3cccc(N4CCC(CN5CCC(N6CCN(c7ncc(C(=O)Nc8ccc(OC(F)(F)Cl)cc8)cc7-c7cc[nH]n7)CC6)CC5)CC4)c3C2=O)C(=O)N1 [GT-08359, N-(4-(chlorodifluoromethoxy)phenyl)-6-(4-(1-((1-(2-(2,4-dioxotetrahydropyrimidin-1(2H)-yl)-1,3-dioxoisoindolin-4-yl)piperidin-4-yl)methyl)piperidin-4-yl)piperazin-1-yl)-5-(1H-pyrazol-3-yl)nicotinamide] | A (0%≤substrate protein remaining %≤80%) | 15 to 20% | 20 to 30% | inhibition at 0.01 µM [1]: 10 to 15%; inhibition at 0.5 µM [1]: 30 to 40%
O=C1CCN(N2C(=O)c3ccc(N4CCC(CN5CCC(N6CCN(c7ncc(C(=O)Nc8ccc(OC(F)(F)Cl)cc8)cc7-c7cc[nH]n7)CC6)CC5)CC4)cc3C2=O)C(=O)N1 [GT-08358, N-(4-(chlorodifluoromethoxy)phenyl)-6-(4-(1-((1-(2-(2,4-dioxotetrahydropyrimidin-1(2H)-yl)-1,3-dioxoisoindolin-5-yl)piperidin-4-yl)methyl)piperidin-4-yl)piperazin-1-yl)-5-(1H-pyrazol-3-yl)nicotinamide] | A (0%≤substrate protein remaining %≤80%) |  |  | 
O=C1CCN(N2C(=O)c3ccc(N4CCC(CN5CCN(c6ncc(C(=O)Nc7ccc(OC(F)(F)Cl)cc7)cc6-c6cc[nH]n6)CC5)CC4)cc3C2=O)C(=O)N1 [GT-08356, N-(4-(chlorodifluoromethoxy)phenyl)-6-(4-((1-(2-(2,4-dioxotetrahydropyrimidin-1(2H)-yl)-1,3-dioxoisoindolin-5-yl)piperidin-4-yl)methyl)piperazin-1-yl)-5-(1H-pyrazol-3-yl)nicotinamide] | A (0%≤substrate protein remaining %≤80%) |  |  | inhibition at 0.01 µM [1]: 20 to 30%; inhibition at 0.5 µM [1]: 30 to 40%
O=C1CCN(N2C(=O)c3cccc(N4CCC(CN5CCN(c6ncc(C(=O)Nc7ccc(OC(F)(F)Cl)cc7)cc6-c6cc[nH]n6)CC5)CC4)c3C2=O)C(=O)N1 [GT-08357, N-(4-(chlorodifluoromethoxy)phenyl)-6-(4-((1-(2-(2,4-dioxotetrahydropyrimidin-1(2H)-yl)-1,3-dioxoisoindolin-4-yl)piperidin-4-yl)methyl)piperazin-1-yl)-5-(1H-pyrazol-3-yl)nicotinamide] | A (0%≤substrate protein remaining %≤80%) |  |  | 
O=C1CCN(N2C(=O)c3ccc(N4CCC(CN5CCN(C6CCN(c7ncc(C(=O)Nc8ccc(OC(F)(F)Cl)cc8)cc7-c7cc[nH]n7)CC6)CC5)CC4)cc3C2=O)C(=O)N1 [GT-08360, N-(4-(chlorodifluoromethoxy)phenyl)-6-(4-(4-((1-(2-(2,4-dioxotetrahydropyrimidin-1(2H)-yl)-1,3-dioxoisoindolin-5-yl)piperidin-4-yl)methyl)piperazin-1-yl)piperidin-1-yl)-5-(1H-pyrazol-3-yl)nicotinamide] | A (0%≤substrate protein remaining %≤80%) | 20 to 30% | 30 to 40% | inhibition at 0.01 µM [1]: 5 to 10%; inhibition at 0.5 µM [1]: 20 to 30%
Cc1ccc(C(=O)Nc2ccc(N3CCC(N(C)Cc4ccc5c(c4)CN(N4CCC(=O)NC4=O)C5=O)CC3)c(C(F)(F)F)c2)cc1C#Cc1cnc2cccnn12 [GT-08220, N-(4-(4-(((2-(2,4-dioxotetrahydropyrimidin-1(2H)-yl)-1-oxoisoindolin-5-yl)methyl)(methyl)amino)piperidin-1-yl)-3-(trifluoromethyl)phenyl)-3-(imidazo[1,2-b]pyridazin-3-ylethynyl)-4-methylbenzamide] | A (0%≤substrate protein remaining %≤80%) |  |  | inhibition at 0.01 µM [3]: -5 to 0%; inhibition at 0.5 µM [3]: 80 to 100%
O=C1CCN(N2C(=O)c3cccc(N4CCC(CN5CCN(C6CCN(c7ncc(C(=O)Nc8ccc(OC(F)(F)Cl)cc8)cc7-c7cc[nH]n7)CC6)CC5)CC4)c3C2=O)C(=O)N1 [GT-08361, N-(4-(chlorodifluoromethoxy)phenyl)-6-(4-(4-((1-(2-(2,4-dioxotetrahydropyrimidin-1(2H)-yl)-1,3-dioxoisoindolin-4-yl)piperidin-4-yl)methyl)piperazin-1-yl)piperidin-1-yl)-5-(1H-pyrazol-3-yl)nicotinamide] | A (0%≤substrate protein remaining %≤80%) | 20 to 30% | 20 to 30% | 
Nc1nnc(-c2cc(F)ccc2O)cc1N1CCN(CC2CCN(c3cccc4c3C(=O)N(N3CCC(=O)NC3=O)C4=O)CC2)CC1 [GT-05069, 4-(4-((4-(3-amino-6-(5-fluoro-2-hydroxyphenyl)pyridazin-4-yl)piperazin-1-yl)methyl)piperidin-1-yl)-2-(2,4-dioxotetrahydropyrimidin-1(2H)-yl)isoindoline-1,3-dione] |  |  |  | Degradation of substrate protein BRG1 (substrate protein remaining %) (BRG1): A (0%≤substrate protein remaining %≤80%); Degradation of substrate protein BRM (substrate protein remaining %) (BRM): A (0%≤substrate protein remaining %≤80%)
Nc1nnc(-c2ccccc2O)cc1N1CCN(Cc2ccc3c(c2)C(=O)N(N2CCC(=O)NC2=O)C3=O)CC1 [GT-05071, 5-((4-(3-amino-6-(2-hydroxyphenyl)pyridazin-4-yl)piperazin-1-yl)methyl)-2-(2,4-dioxotetrahydropyrimidin-1(2H)-yl)isoindoline-1,3-dione] |  |  |  | Degradation of substrate protein BRG1 (substrate protein remaining %) (BRG1): B (80%<substrate protein remaining %≤100%); Degradation of substrate protein BRM (substrate protein remaining %) (BRM): A (0%≤substrate protein remaining %≤80%)
Cc1ccc(C(=O)Nc2ccc(CN3CCN(CC4CCN(c5ccc6c(c5)C(=O)N(N5CCC(=O)NC5=O)C6=O)CC4)CC3)c(C(F)(F)F)c2)cc1C#Cc1cnc2cccnn12 [GT-08352, N-(4-((4-((1-(2-(2,4-dioxotetrahydropyrimidin-1(2H)-yl)-1,3-dioxoisoindolin-5-yl)piperidin-4-yl)methyl)piperazin-1-yl)methyl)-3-(trifluoromethyl)phenyl)-3-(imidazo[1,2-b]pyridazin-3-ylethynyl)-4-methylbenzamide] | A (0%≤substrate protein remaining %≤80%) | 15 to 20% | 20 to 30% | inhibition at 0.01 µM [3]: 30 to 40%; inhibition at 0.5 µM [3]: 80 to 100%
Nc1nnc(-c2ccccc2O)cc1N1CCN(CC2CCN(C3CCN(c4ccc5c(c4)C(=O)N(N4CCC(=O)NC4=O)C5=O)CC3)CC2)CC1 [GT-05095, 5-(4-((4-(3-amino-6-(2-hydroxyphenyl)pyridazin-4-yl)piperazin-1-yl)methyl)-[1,4′-bipiperidin]-1′-yl)-2-(2,4-dioxotetrahydropyrimidin-1(2H)-yl)isoindoline-1,3-dione] |  |  |  | Degradation of substrate protein BRG1 (substrate protein remaining %) (BRG1): B (80%<substrate protein remaining %≤100%); Degradation of substrate protein BRM (substrate protein remaining %) (BRM): A (0%≤substrate protein remaining %≤80%)
Cc1ccc(C(=O)Nc2ccc(N3CCN(Cc4ccc5c(c4)C(=O)N(N4CCC(=O)NC4=O)C5=O)CC3)c(C(F)(F)F)c2)cc1C#Cc1cnc2cccnn12 [GT-08219, N-(4-(4-((2-(2,4-dioxotetrahydropyrimidin-1(2H)-yl)-1,3-dioxoisoindolin-5-yl)methyl)piperazin-1-yl)-3-(trifluoromethyl)phenyl)-3-(imidazo[1,2-b]pyridazin-3-ylethynyl)-4-methylbenzamide] | A (0%≤substrate protein remaining %≤80%) |  |  | 
